For 3 molecules, Ki and IC50 results are on record in ChEMBL document CHEMBL5653593 (Clin Sci (Lond), 2002).

In test [1] the target is T1, Endothelin receptor type B (Homo sapiens, UniProt P24530).
T1 sequence (P24530 whole entry): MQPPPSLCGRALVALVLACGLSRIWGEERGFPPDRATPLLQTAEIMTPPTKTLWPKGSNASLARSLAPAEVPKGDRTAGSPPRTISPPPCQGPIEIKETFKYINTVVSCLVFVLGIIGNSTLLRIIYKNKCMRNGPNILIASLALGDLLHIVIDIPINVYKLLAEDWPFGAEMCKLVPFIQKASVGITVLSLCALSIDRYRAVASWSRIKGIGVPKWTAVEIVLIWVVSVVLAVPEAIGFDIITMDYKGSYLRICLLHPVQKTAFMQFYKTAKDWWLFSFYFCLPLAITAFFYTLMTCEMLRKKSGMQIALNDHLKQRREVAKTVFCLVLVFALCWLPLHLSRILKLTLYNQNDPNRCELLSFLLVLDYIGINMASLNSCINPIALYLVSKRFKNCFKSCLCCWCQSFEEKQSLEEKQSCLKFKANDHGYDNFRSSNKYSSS
Nature of the test: Binding affinity to human ETB receptor transfected in CHO cell membrane assessed as inhibition constant incubated for 3 hrs by 125I-labelled ET-1 saturation binding assay. It counts as cell membranes.

The target of test [2] is T1, Endothelin receptor type B. In words: Antagonist activity at human ETB receptor transfected in CHO cell membrane […]. It counts as functional, cell membranes.
For test [3], the target named is T2, Endothelin-1 receptor (Homo sapiens, UniProt P25101).
T2 sequence (P25101 whole entry): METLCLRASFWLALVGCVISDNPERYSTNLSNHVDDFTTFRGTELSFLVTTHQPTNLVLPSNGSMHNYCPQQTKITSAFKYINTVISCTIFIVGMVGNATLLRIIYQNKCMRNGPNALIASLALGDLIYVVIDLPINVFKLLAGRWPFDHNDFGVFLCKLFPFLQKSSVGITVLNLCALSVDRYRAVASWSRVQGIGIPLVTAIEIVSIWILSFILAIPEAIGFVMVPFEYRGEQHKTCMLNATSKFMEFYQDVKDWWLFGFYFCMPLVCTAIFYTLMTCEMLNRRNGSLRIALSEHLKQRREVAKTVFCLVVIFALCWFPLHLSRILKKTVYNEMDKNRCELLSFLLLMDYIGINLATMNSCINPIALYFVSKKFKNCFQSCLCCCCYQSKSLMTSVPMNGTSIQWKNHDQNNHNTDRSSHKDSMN
Nature of the test: Antagonist activity at human ETA receptor transfected in CHO cell membrane assessed as inhibition of 125I-labelled ET-1 binding to receptor incubated for 3 hrs by competition binding assay. Format: functional, cell membranes.

For test [4], the target named is T3, Endothelin-1 receptor (Rattus norvegicus, UniProt P26684).
T3 sequence (P26684 whole entry): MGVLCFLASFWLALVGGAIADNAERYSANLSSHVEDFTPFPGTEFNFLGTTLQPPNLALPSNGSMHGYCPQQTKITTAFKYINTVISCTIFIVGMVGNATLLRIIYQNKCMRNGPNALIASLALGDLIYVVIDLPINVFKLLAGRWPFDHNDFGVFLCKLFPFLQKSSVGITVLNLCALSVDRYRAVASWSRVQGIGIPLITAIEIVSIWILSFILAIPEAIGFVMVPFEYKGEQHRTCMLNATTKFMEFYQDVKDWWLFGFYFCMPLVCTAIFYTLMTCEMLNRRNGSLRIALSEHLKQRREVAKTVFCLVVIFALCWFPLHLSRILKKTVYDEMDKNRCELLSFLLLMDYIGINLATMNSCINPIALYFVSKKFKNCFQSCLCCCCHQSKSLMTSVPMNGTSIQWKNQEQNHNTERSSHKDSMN
Nature of the test: Antagonist activity at ETA receptor in rat MMQ cells assessed as inhibition of phosphatidylinositol hydrolysis by myo-[3H]inositol radioactivity based assay. Format: functional, cell-based.

For test [5], the target named is T2, Endothelin-1 receptor. In words: Binding affinity to human ETA receptor transfected in CHO cell membrane assessed as inhibition constant incubated for 3 hrs by 125I-labelled ET-1 saturation binding assay. Format: cell membranes.

pIC50, pKi: −log10 of the molar value. Where only a bound is given, the exact number is not on record here.

As usually defined, the pKi is the Ki on a negative log10 scale, so that one unit is a factor of ten. Broadly, the pIC50 is the IC50 on a negative log10 scale, so that one unit is a factor of ten.

On to `CCCCCS(=O)(=O)N(CCC)CCN1C[C@H](c2ccc3c(c2)OCO3)[C@@H](C(=O)O)[C@@H]1c1ccc(OC)c(F)c1`, for which the pKi in test [1] was 8.91. Also, in test [2], the pIC50 is 8.95.

Turning to `CCCOc1ccc([C@H]2[C@H](C(=O)O)[C@@H](c3ccc4c(c3)OCO4)CN2CC(=O)Nc2c(CC)cccc2CC)cc1` [A-192621], the pIC50 was 5.37 in test [3], no more than 6.15 in test [4] and 9.23 in test [2]. For the same molecule, the pKi in test [5] was 5.25.

In the case of `CCCCN(CCCC)C(=O)CN1C[C@H](c2cc(OC)c3c(c2)OCO3)[C@@H](C(=O)O)[C@@H]1CC(C)(C)CCC` [ABT-546], the pIC50 in test [4] was 9.23.
